Legend:
[1] = system: wild-type mice; assay: Prepulse inhibition (PPI) of acoustic startle response in wild-type mice; type: in vivo, mouse; conditions: 0.2 mg/kg i.p. 45 minutes before the test, vs vehicle
Procedure: (§1) PPI tests were carried out with 26 responder mice 13˜15 weeks old by using a single acoustic startle chamber (Coulbourn Instruments, USA), one mouse at a time. The startle reflex was triggered by a pulse stimulus in the form of a 40 msec, 120 dB burst of white noise (SS). Inhibition of the SS-elicited startle response was achieved using a 20 msec-prepulse stimulus of various intensities (74, 82, and 90 dB white noise) that preceded SS by 100 msec.
(§2) The test was composed of a series of 7 blocks, each of which was a “semi-random” mixture of 8 different trial types (no stimulus, SS only, three PP only, three PP plus SS), separated by 10 to 15-second intertrial intervals. The percent prepulse inhibition (%PPI) was calculated as [1−(response to PP-SS coupling/response to SS only)]×100.
(§3) Haloperidol (0.2 mg/kg body weight) was intraperitonealy (i.p.) administered 45 minutes before the test, using 0.5% dimethylsulfoxide (DMSO) in saline (0.9% NaCl) as the vehicle. Haloperidol (Tocris Cookson, UK) stock solution was prepared in DMSO and stored at […] for less than a month.

[2] = system: PLCβ1−/− mice; assay: Prepulse inhibition (PPI) of acoustic startle response in PLCβ1−/− mice; type: in vivo, mouse; conditions: 0.2 mg/kg i.p. 45 minutes before the test, prepulse 74, 82, 90 dB, p<0.05 vs vehicle
Procedure: as §1, §2, §3

## O=C(CCCN1CCC(O)(c2ccc(Cl)cc2)CC1)c1ccc(F)cc1 [haloperidol, Haloperidol]
[1]
  effect on the PPI (%PPI): not effective
[2]
  effect on the PPI deficit (%PPI): completely reversed

From patent publication US7521590B2, “Phospholipase C β1 (PLCβ1) knockout mice as a model system for testing schizophrenia drugs” (Korea Institute of Science and Technology, priority 2006, dated 2009)
